Reference: patent US4775743A, “Peptide derivatives” (Green Cross Corporation, priority 1985, dated 1988)
Square brackets hold non-standard residues; d marks the D form. Ends that are not written are not given here. Peptide text beside a SMILES is read from it. * marks the point of attachment. Desaminotyrosyl = O=C(CCc1ccc(O)cc1)*; Hyp = O=C(O)[C@@H]1C[C@@H](O)CN1

Columns and labels:
[1] = test system: rat PRP (platelet-rich plasma) / rat washed platelets; test: Platelet agglutination inhibitory action (in vitro); type: cell-based; conditions: agglutination induced by arachidonic acid (1 mM), thrombin (0.8 U/ml) or Ca ionophore A-23187 (4 μM), FIGS. 1, 2 and 3
Method: Blood samples were taken from the abdominal artery of rats by means of a syringe containing 3.8% solution of sodium citrate, and the mixture (sodium citrate:blood=1:9) was centrifuged for ten minutes, giving platelet-rich plasma (PRP).
PRP thus collected was placed in cuvettes and kept in an incubator held at 37° C. for two minutes. Solutions of the compound obtained in Example 1 with different concentrations (diluted with a solution of 1.5 mM EDTA in a mixture of Tris-HCl buffer and sodium chloride solution (1:5)) were added, the resulting mixture in each cuvette was incubated for three minutes, and Ca ionophore A-23187 (final concentration: 4 μM), arachidonic acid (1 mM) or thrombin (0.8 U/ml) was added to measure the degree of agglutination. A solution of heparin sodium was used in place of sodium citrate when arachidonic acid was employed as agglutination inducer.

[2] = background statement on the prior-art compound; cited from earlier work

Molecule	strength of inhibitory effect against platelet agglutination relative to compound P (control) [1]	half-life in the blood [2]
C[C@H](NC(=O)CNC(=O)[C@@H]1C[C@@H](O)CN1C(=O)[C@@H]1CCCN1C(=O)CCc1ccc(O)cc1)C(=O)NCC(=O)O [HP, N-3-(4-hydroxyphenyl)propionyl-L-prolyl-L-hydroxyprolyl-glycyl-L-alanyl-glycine] (Desaminotyrosyl-P[Hyp]GAG-OH)	about ten	
P[Hyp]GAG [Compound P]		about ten
